From PubChem BioAssay (NCI)
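Compound exposure: 48 hours, 5 concentrations, 96-well plates. GI50 marks 50% less growth. The concentration for full growth arrest is given as TGI.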

Assays:
Assay in all cases: DTP human tumour cell line panel, 48 h
UACC-257 melanoma = system: UACC-257 melanoma
SR leukemia = system: SR leukemia
HCT-116 colon = system: HCT-116 colon
SK-MEL-2 melanoma = system: SK-MEL-2 melanoma
SK-MEL-28 melanoma = system: SK-MEL-28 melanoma
OVCAR-8 ovarian = system: OVCAR-8 ovarian
SF-268 CNS = system: SF-268 CNS
OVCAR-4 ovarian = system: OVCAR-4 ovarian
RPMI-8226 leukemia = system: RPMI-8226 leukemia
K-562 leukemia = system: K-562 leukemia

Compound | TGI (UACC-257 melanoma) [µM] | TGI (SR leukemia) [µM] | TGI (HCT-116 colon) [µM] | TGI (SK-MEL-2 melanoma) [µM] | TGI (SK-MEL-28 melanoma) [µM] | TGI (OVCAR-8 ovarian) [µM] | TGI (SF-268 CNS) [µM] | TGI (OVCAR-4 ovarian) [µM] | TGI (RPMI-8226 leukemia) [µM] | TGI (K-562 leukemia) [µM] | GI50 (UACC-257 melanoma) [µM] | GI50 (OVCAR-4 ovarian) [µM] | GI50 (SR leukemia) [µM] | GI50 (HCT-116 colon) [µM] | GI50 (SK-MEL-2 melanoma) [µM] | GI50 (SK-MEL-28 melanoma) [µM] | GI50 (OVCAR-8 ovarian) [µM] | GI50 (SF-268 CNS) [µM] | GI50 (K-562 leukemia) [µM] | GI50 (RPMI-8226 leukemia) [µM]
O=[N+]([O-])c1cnn(C2=CNc3ccccc3N=C2)c1 | > 100 | > 100 | > 100 | > 100 | > 100 | > 100 | > 100 | – | – | – | – | – | – | – | – | – | – | – | – | –
NC(=S)NNc1c([N+](=O)[O-])cnn(-c2ccccc2)c1=O | 38.8 | > 100 | 22.1 | – | 30.8 | 31.8 | 40.6 | 31.8 | > 100 | 15.9 | – | – | – | – | – | – | – | – | – | –
O=C(O)C1CCCCC1C(=O)O.[NH-]C1CCC1.[NH2-].[Pt+2] (stereo unspecified) | 36.6 | > 100 | 36.2 | > 100 | 31.4 | > 100 | > 100 | 29.7 | – | > 100 | 15 | 15.2 | 3.72 | 16.1 | 57.2 | 15.9 | > 100 | > 100 | 29.6 | –
C/C(=N\N(c1ccccc1)c1ccccc1)c1c(O)cc(C)oc1=O | > 100 | > 100 | > 100 | > 100 | > 100 | > 100 | > 100 | > 100 | – | > 100 | – | – | – | – | – | – | – | – | – | –
COC1OC(CO)C(O)C1N (stereo unspecified) | > 100 | > 100 | > 100 | – | > 100 | > 100 | > 100 | > 100 | – | > 100 | – | – | – | – | – | – | – | – | – | –
Cc1c(C(=O)NCCN2CCOCC2)cn2ncnc(Oc3ccc(NC(=O)Nc4ccc(Cl)c(C(F)(F)F)c4)cc3)c12 | – | 2.26 | 2.1 | – | 2.39 | > 100 | – | 5.61 | 3.01 | – | – | 2.37 | 0.339 | 0.711 | – | 1.06 | 3.1 | – | – | 0.545
OCCNc1ncnc2c1ncn2Cc1cccc(COc2cccc(OCc3cccc(Cn4cnc5c(NCCO)ncnc54)c3)c2)c1 | 36.1 | – | 22.3 | 35.2 | 28.4 | 38.1 | 32.7 | 34.2 | 27.8 | 35.8 | 18.4 | 14.7 | – | 10.2 | 16 | 14.6 | 18.5 | 16.4 | 8.01 | 6.47
CC1C(=O)OCC2=CCN3CCC(OC(=O)C(C)C1(C)O)C23 (stereo unspecified) | > 100 | – | > 100 | > 100 | > 100 | > 100 | > 100 | > 100 | > 100 | > 100 | – | – | – | – | – | – | – | – | – | –
Cn1c2c(c3ccc(Cl)c(Cl)c31)C(C#N)C1(CCNCC1)NC2=O (stereo unspecified) | 3.69 | – | 2.92 | 4.73 | 2.37 | 8.85 | 4.89 | 8.8 | 3.87 | 2.89 | 1.75 | 2.82 | – | 1.39 | 2.12 | 0.841 | 2.83 | 1.77 | 1.47 | 1.7
CCOC(=O)/C=C/C1=C(c2cccs2)c2ccccc2CC1 | 53.7 | – | 79.5 | > 100 | 75 | > 100 | > 100 | > 100 | 49.4 | > 100 | 21.2 | 38.9 | – | 25.4 | 35.9 | 26.3 | 30.5 | 30.2 | 30.6 | 21.2
Cc1cccc(C)c1NC(=O)C1C(=O)N(c2c(C)cccc2C)C(=O)/C1=N\NC(N)=S (stereo unspecified) | > 100 | – | > 100 | > 100 | > 100 | > 100 | > 100 | > 100 | > 100 | > 100 | – | – | – | – | – | – | – | – | – | –
Nc1ccccc1C#C/C=C\C#Cc1ccccc1 | > 100 | – | 28.6 | 98.3 | 27.1 | > 100 | 28 | 32.4 | 10.7 | > 100 | 27.7 | 12.1 | – | 14.1 | 25.5 | 11.7 | 48 | 5.93 | 12.8 | 1.26
CC[PH+](CC)CC.O=COC1OC([S-])C(OC=O)C(OC=O)C1OC=O.[Au+] (stereo unspecified) | 3.29 | – | 3.15 | 3.38 | 2.15 | 5.55 | 3.15 | 4.53 | 5.07 | > 100 | 1.19 | 1.89 | – | 1.56 | 1.47 | 0.907 | 2.13 | 1.17 | 0.605 | 1.35
